Source: US7488712B2, “Histone deacetylase inhibitors and methods for producing the same” (Kyushu Institute of Technology, priority 2002, dated 2009)
*1 amine or outer side, *2 acyl side, *3 side chain or, on linkers, in order; H or OH if unused. Where a SMILES comes first, the peptide text is derived from it. Bridges are numbered along the chain shown (N, C = ends). Roman numbers before positions name the chains, in order. [ ]: non-standard residue; d: D form. hNle(7-SH) = O=C([C@H](CCCCCS[*:3])N[*:1])[*:2]

How the values were obtained:
human HDAC1 = molecular target: T1, human HDAC1 (Homo sapiens, UniProt Q13547); assay: In vitro HDAC inhibition activity, [3H]-acetylated histone substrate, HDAC1; assay type: biochemical; conditions: Table 2; homodimer
T1 construct: FLAG; made in house; host or cells: 293T cells (transient transfection, anti-FLAG immunoprecipitation, FLAG peptide elution)
T1 sequence (Q13547 whole entry): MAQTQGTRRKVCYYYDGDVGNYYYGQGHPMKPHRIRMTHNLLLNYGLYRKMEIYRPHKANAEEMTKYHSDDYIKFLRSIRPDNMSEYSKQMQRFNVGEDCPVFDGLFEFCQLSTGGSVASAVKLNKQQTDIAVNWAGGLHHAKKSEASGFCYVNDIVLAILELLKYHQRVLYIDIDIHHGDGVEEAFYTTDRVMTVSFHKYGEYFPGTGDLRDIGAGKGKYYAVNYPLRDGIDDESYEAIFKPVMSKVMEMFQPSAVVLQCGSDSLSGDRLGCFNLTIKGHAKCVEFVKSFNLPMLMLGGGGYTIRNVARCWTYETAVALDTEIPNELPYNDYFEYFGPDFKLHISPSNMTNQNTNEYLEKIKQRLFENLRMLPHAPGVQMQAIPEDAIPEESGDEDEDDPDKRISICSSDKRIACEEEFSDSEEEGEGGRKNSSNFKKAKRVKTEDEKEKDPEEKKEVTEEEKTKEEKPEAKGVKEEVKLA
Procedure: (§1) To measure HDAC inhibition activity, an HDAC solution was prepared as described below. 1×10^7 of 293T cells were plated on to a 100-mm dish and, after 24 hours, transfected with vectors (1 μg) expressing human HDAC1 and HDAC4 or mouse HDAC6, using LipofectAmine 2000 reagent (Life Technologies, Inc. Gaithersburg, Md.). […] The vectors were introduced for five hours in OPTI-MEM. The medium was then replaced with Dulbecco's modified Eagle's medium (DMEM), and incubated for 19 hours. The cells were washed with PBS, suspended in lysis buffer (50 mM Tris-HCl (pH7.5), 120 mM NaCl, 5 mM EDTA, and 0.5% Nonidet P-40), and sonicated. The supernatant was collected by centrifugation and nonspecific protein was removed using Protein A/G plus agarose beads (Santa Cruz Biotechnologies, Inc.). Anti-FLAG M2 antibodies (Sigma-Aldrich, Inc.) were added to the supernatant of cells expressing HDAC1 or HDAC4. Anti-HA antibodies (clone 3F10, Roche Molecular Biochemicals) were added to the supernatant of cells expressing HDAC6. Reaction in the respective mixtures was carried out at 4° C. for one hour. The resulting reaction mixtures were independently mixed with agarose beads and further reacted at 4° C. for one hour. The agarose beads were washed three times with lysis buffer and then washed once with HD buffer (20 mM Tris-HCl (pH8.0), 150 mM NaCl, 10% glycerol, and a complete protease inhibitor cocktail (Boehringer Mannheim, Germany)). […] The HDAC reaction solution was used for determining HDAC inhibition activity as shown below.
(§2) In vitro HDAC inhibition activity was evaluated as follows: A test compound was dissolved in DMSO and adjusted to 10 mM. This was used as an inhibitor stock solution. […] These reactions were stopped by adding 10 μl HCl. The [^3H] acetic acid excised by the enzyme reaction was extracted with ethyl acetate and subjected to radioactive dose measurement. As a negative control, the same procedure was carried out in which no inhibitor was added to the reaction system. The inhibition activity was expressed as a 50% inhibition concentration (“IC50 (nM)”) of the HDAC activity in the negative control (Tables 1 to 4).

human HDAC4 = molecular target: T2, human HDAC4 (Homo sapiens, UniProt P56524); assay: In vitro HDAC inhibition activity, [3H]-acetylated histone substrate, HDAC4; assay type: biochemical; conditions: Table 2; homodimer
T2 construct: FLAG; made in house; host or cells: 293T cells (transient transfection, anti-FLAG immunoprecipitation, FLAG peptide elution)
T2 sequence (O15379 whole entry partner): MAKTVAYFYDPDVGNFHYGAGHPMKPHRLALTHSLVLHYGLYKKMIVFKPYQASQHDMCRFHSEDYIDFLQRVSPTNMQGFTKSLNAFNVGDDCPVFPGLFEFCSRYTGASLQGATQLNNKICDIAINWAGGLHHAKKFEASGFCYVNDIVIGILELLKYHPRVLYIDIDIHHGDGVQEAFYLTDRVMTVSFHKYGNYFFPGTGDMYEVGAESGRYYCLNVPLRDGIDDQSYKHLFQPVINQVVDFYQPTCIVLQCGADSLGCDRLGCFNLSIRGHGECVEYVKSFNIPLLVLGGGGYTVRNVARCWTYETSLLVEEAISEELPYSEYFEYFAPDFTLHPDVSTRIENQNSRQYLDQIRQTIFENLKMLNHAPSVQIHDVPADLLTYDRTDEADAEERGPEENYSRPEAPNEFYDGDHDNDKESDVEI
T2 sequence (P56524 whole entry): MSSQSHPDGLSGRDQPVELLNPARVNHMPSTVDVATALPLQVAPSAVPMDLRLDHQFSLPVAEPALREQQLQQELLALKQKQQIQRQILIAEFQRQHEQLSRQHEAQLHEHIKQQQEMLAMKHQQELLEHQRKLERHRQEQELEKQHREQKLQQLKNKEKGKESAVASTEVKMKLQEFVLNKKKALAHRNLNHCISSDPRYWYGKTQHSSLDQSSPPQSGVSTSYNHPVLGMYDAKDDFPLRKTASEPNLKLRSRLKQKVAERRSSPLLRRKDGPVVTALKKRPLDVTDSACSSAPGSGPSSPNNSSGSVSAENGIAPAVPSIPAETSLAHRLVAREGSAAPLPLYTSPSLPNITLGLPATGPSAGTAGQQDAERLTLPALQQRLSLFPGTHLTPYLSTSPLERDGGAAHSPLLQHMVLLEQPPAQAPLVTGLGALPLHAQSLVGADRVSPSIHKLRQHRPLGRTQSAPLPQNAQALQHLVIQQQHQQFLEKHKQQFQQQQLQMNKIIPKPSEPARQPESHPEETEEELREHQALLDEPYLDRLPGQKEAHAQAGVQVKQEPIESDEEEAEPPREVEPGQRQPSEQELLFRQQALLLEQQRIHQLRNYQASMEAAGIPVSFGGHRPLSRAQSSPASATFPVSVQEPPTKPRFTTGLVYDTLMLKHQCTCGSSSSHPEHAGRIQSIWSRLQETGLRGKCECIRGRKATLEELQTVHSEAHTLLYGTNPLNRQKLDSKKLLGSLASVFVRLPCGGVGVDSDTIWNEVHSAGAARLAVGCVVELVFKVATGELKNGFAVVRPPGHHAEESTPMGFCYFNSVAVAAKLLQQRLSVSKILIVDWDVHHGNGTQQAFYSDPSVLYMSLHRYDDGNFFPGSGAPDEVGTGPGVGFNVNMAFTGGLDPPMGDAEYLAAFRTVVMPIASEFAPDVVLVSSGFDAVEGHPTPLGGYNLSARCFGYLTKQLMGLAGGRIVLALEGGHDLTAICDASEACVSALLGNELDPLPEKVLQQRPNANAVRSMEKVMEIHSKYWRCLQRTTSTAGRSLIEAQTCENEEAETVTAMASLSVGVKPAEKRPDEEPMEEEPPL
Procedure: as §1, §2

mouse HDAC6 = molecular target: T3, mouse HDAC6 (Mus musculus, UniProt Q9Z2V5); assay: In vitro HDAC inhibition activity, [3H]-acetylated histone substrate, HDAC6; assay type: biochemical; conditions: Table 2; homodimer
T3 construct: HA; made in house; host or cells: 293T cells (transient transfection, anti-HA immunoprecipitation, HA peptide elution)
T3 sequence (Q9Z2V5 1-1149): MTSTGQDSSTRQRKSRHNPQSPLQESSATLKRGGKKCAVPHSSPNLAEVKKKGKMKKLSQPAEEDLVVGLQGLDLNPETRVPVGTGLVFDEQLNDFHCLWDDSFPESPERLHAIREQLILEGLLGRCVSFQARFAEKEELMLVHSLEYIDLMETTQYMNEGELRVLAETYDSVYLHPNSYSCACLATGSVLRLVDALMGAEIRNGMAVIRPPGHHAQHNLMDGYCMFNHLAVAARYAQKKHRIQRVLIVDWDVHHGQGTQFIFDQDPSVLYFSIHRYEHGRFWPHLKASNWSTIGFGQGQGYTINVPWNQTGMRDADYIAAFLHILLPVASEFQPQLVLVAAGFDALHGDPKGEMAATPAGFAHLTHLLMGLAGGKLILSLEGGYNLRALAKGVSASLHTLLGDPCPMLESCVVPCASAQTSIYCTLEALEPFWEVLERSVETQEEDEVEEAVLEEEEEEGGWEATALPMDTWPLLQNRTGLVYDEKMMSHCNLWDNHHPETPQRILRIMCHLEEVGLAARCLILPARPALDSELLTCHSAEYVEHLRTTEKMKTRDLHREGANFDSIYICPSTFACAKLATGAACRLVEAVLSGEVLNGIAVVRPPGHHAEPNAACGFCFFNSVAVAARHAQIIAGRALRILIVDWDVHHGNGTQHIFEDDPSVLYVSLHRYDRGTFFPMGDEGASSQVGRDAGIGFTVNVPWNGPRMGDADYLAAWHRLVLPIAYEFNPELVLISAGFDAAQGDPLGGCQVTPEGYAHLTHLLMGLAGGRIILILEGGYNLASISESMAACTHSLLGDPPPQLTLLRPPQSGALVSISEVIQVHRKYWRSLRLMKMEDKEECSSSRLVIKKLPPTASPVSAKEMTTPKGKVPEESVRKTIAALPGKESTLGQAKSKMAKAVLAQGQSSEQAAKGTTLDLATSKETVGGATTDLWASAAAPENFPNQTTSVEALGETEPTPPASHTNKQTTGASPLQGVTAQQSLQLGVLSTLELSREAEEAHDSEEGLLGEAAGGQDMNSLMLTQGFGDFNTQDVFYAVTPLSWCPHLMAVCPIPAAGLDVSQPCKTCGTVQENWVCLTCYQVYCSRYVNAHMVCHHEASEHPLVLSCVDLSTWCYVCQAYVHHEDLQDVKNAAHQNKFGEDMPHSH
Procedure: as §1, §2

[1] = test system: human wild-type p21 promoter; assay: p21 promoter-inducing activity (luciferase) in MFLL-9 cells; assay type: cell-based
Procedure: The HDAC inhibition activity in vivo was measured using p21 promoter-inducing activity as an index, as shown below. The MFLL-9 cells employed for the experiments stably maintained fusion genes of human wild-type p21 promoter and luciferase (Dr. B. Vogelstaein). Using phenol red-free DMEM medium comprising 10% FBS, cultivation was carried out in a steam-saturated incubator at 37° C. with 5% carbon dioxide. The MFLL-9 cells were plated at a density of 85,000 cells/well on a 96-well microtiter plate, each in 99 μl of the above-mentioned medium. These were then cultivated for six hours. One μl of test compound solution was added to each well, which was then cultured for another 18 hours.
The intensity of luminescence caused by the product of the enzyme reaction for intracellular luciferase expression was measured using Luc Lite (Packard BioScience Company). A group in which test compounds were not added was used as a negative control group. The values measured for this group were used as a standard. The activities for each concentration of added test compound were expressed relative to the above-mentioned standard value, 1.

in vitro = conditions: human, Cancer-Cell-Selective Cytotoxicity
Procedure: (§3) Human normal lung cells (TIG-3) and human uterine cancer cells (HeLa) were used to test SCOP cytotoxicity. These TIG-3 and HeLa cells were cultured in a DMEM medium comprising 10% FBS at 37° C. in the presence of 5% carbon dioxide in a steam-saturated incubator. The TIG-3 and HeLa cells were plated in 100 μl/well of the above-described medium on a 96-well microtiter plate, at a density of 30,000 cells/well and 10,000 cells/well respectively. This was then cultured for 18 hours. Test compound solution diluted with medium was added to each well and culture was continued for another 48 hours.
(§4) 30 μl of supernatant from each well was transferred to another 96-well microtiter plate (A), and the remaining supernatant was discarded. 100 μl of 0.5% Triton-X/PBS was added to each well to lyse the cells, and 30 μl was then transferred to each respective well of another 96-well microtiter plate (B). 30 μl of LDH-Cytotoxic Test (Wako) substrate solution was added to each well of these 96-well microtiter plates A and B, causing a color reaction. Once the color reaction was sufficiently progressed, it was stopped by adding 60 μl of a quenching solution. Color intensity was measured at OD560 nm using a microplate reader (Softmax). [A/(A+B)] was calculated as the free-LDH ratio. […] The higher the activity value for cancer-cell-selective cell damage (LD50 for normal cells/LD50 for cancer cells), the more that cancer-cell-selective apoptosis was induced.

[2] = test system: human uterine cancer cells (HeLa); assay: in vitro
Procedure: as §3, §4

[3] = Stability in serum (FCS), read out by p21 promoter inducing activity; assay type: in vitro ADME
Procedure: The stability of SCOP 152, SCOP 304, and SCOP 402 in serum was evaluated by the method shown below: 1 μl of 10 mM SCOP 152, SCOP 304, and SCOP 402 was added to 99 μl FCS, and incubated at 37° C. Each hour, NaCl in a sufficient amount for saturation and 1 ml of ethyl acetate were added to each mixture. After extraction, from 800 μl of the ethyl acetate phase, the ethyl acetate was distilled off, and then 100 μl of DMSO was added to the residue. The resulting solution was further diluted ten times with DMSO and used to measure p21 promoter inducing activity. Activity at incubation time zero was taken as 100%, and activities were compared (FIG. 7).

[4] = test system: Human normal lung cells (TIG-3); assay: Cytotoxicity test (free-LDH ratio), TIG-3; assay type: cell-based; conditions: 48 hours; free-LDH ratio 50%; without DTT
Procedure: This was then cultured for 18 hours.

SMILES	IC50 (human HDAC1) [nM]	IC50 (human HDAC4) [nM]	IC50 (mouse HDAC6) [nM]	EC50 ([1]; Table 2, homodimer) [nM]	selectivity ratio at 48 h (in vitro)	Cancer-Cell-Selective Cytotoxicity ([2]; human, 48 h)	Retention of activity in serum [3]	EC50 ([1]; Table 4, positive control) [nM]	LD50 (nM) HeLa ([2]; 48 hours, free-LDH ratio 50%, without DTT) [nM]	LD50 (nM) TIG-3 [4] [nM]
CC[C@H](C)[C@@H]1NC(=O)[C@@H](Cc2ccc(OC)cc2)NC(=O)[C@H](CCCCCSSCCCCC[C@@H]2NC(=O)[C@H]3CCCN3C(=O)[C@H]([C@@H](C)CC)NC(=O)[C@@H](Cc3ccc(OC)cc3)NC2=O)NC(=O)[C@H]2CCCN2C1=O [SCOP 304, cyclo(-L-Am7(-)-D-Tyr(Me)-L-Ile-D-Pro-)] (I: cyclo([hNle(7-SH)][dY](Me)I[dP]) / II: cyclo([hNle(7-SH)][dY](Me)I[dP]); disulfide I:1-II:1)	142	145	> 500000	341	25.2	23.0	stably retain activity in serum for longer than SCOP 152			
CC(/C=C/C(=O)NO)=C\[C@@H](C)C(=O)c1ccc(N(C)C)cc1 [TSA, Tricostatin A, reference compound]								445	41.4	1580
